Laboratory results taken from patent US20240279221A1, “HETEROCYCLIC COMPOUNDS AND METHODS OF USE” (Schrödinger, Inc., priority 2021, published 2024).
pIC50: −log10 of the molar value.

These compounds were tested against SOS1:KRAS (G12C) interaction (Homo sapiens (Human), UniProt Q07889) (assay: SOS1-KRas(G12C) FRET Assay). Conditions: 0.5 nM His10-SOS1 (res. 564-1049), 2.5 nM GST-KRAS (res. 1-169, G12C); read-out: SOS-KRas(G12C) FRET IC50.
Type: binding
Experimental: Inhibition of the SOS1:KRAS interaction was measured using purified GST-tagged KRAS (res. 1-169, G12C, purified based on Hillig, et al., Proc Natl Acad Sci USA (2019); 116(7):2551-2560) and recombinant His10-SOS1 (res. 564-1049; purified based on Hillig, et al.). The final assay was performed at 20 uL with 0.5 nM SOS1 protein and 2.5 nM KRAS protein in a buffer of PBS, 0.1% BSA, 5 mM MgCl2, 0.0025% Igepal, 100 mM KF, 5 mM DTT in a white 384 square well OptiPlate (PerkinElmer, Cat. 6007290). A 2× KRAS working solution was prepared in an assay buffer containing 5 nM GST-KRAS G12C and 2 nM anti-GST-Eu(K) (Cisbio, Cat. 61GSTKLA) and pre-incubated for 15 minutes at 25° C. Compounds were serially diluted in 100% DMSO from 2 mM (positive control, compound I-13, PCT Publ. No. WO2018/115380) or 20 mM and then diluted 1:20 in assay buffer before incubation with a solution of SOS1 protein mixed 1:5 with anti-6His-XL665 FRET donor (Cisbio, Cat. 61HISXL) for 15 minutes at 25° C. before addition of 2× KRAS working solution. The final DMSO concentration is 0.5%. Plates were incubated at RT for 2 hrs before the FRET signal was measured using Envision at emission 665 nm and 615 nm. FRET signal was converted to percentage of protein-protein interaction using the following equation:
[formula] • C: signal with compound treatment • P: signal for positive control (DMSO) • N: signal for negative control (no SOS1 added) • IC50 and Hill coefficients were obtained using Graph Pad Prism (Graph Pad software, Inc, USA) with non-linear regression analysis.

Sequence of SOS1:KRAS (G12C) interaction (Q07889 564-1049, stated change not applied): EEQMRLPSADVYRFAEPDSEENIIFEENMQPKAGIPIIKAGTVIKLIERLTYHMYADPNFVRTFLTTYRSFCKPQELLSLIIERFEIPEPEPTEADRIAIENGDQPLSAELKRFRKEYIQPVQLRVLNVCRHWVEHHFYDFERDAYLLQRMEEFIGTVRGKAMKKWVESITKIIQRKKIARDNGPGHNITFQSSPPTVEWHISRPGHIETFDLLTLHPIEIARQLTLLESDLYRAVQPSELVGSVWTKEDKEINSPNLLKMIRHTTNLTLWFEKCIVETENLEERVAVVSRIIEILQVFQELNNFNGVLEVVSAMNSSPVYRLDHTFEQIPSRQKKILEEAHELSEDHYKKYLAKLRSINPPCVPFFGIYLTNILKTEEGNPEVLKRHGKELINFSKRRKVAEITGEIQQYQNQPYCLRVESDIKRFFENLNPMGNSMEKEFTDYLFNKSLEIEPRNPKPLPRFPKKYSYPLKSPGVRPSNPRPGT

**Q.** With Cc1cc([C@H](C)Nc2nn(C)c(=O)c3cc(=O)n(C4CC4)cc23)cc(C(F)(F)F)c1 [Example 117, 6-cyclopropyl-2-methyl-4-[[(1S)-1-[3-methyl-5-(trifluoromethyl)phenyl]ethyl]amino]pyrido[3,4-d]pyridazine-1,7-dione] as the compound, how does the pIC50 read?
**A.** 6.25

**Q.** C[C@@H](Nc1nn(C)c(=O)c2cc(=O)n([C@H]3CCC(F)(F)C3)cc12)c1cccc(C(F)F)c1F (single isomer, unassigned) [Example 121] was tested. Which pIC50 did it give?
**A.** 6.90

**Q.** C[C@@H](Nc1nn(C)c(=O)c2cc(=O)n(C3(CN4CC(F)C4)CC3)cc12)c1cccc(C(F)F)c1F [Example 124, (R)-4-((1-(3-(difluoromethyl)-2-fluorophenyl)ethyl)amino)-6-(1-((3-fluoroazetidin-1-yl)methyl)cyclopropyl)-2-methylpyrido[3,4-d]pyridazine-1,7(2H,6H)-dione] was tested. Which pIC50 did it give?
**A.** 6.05

**Q.** C[C@H](Nc1nn(C)c(=O)c2cc(=O)n(C3(C(F)F)CC3)cc12)c1cccc2ccnn12 [Example 115, (S)-6-(1-(difluoromethyl)cyclopropyl)-2-methyl-4-((1-(pyrazolo[1,5-a]pyridin-7-yl)ethyl)amino)-2,6-dihydropyrido[3,4-d]pyridazine-1,7-dione] was tested. Which pIC50 did it give?
**A.** < 5.00

**Q.** With C[C@@H](Nc1nn(C)c(=O)c2cc(=O)n(C3(CF)CC3)cc12)c1cccc(C(F)F)c1F [Example 125, (R)-4-((1-(3-(difluoromethyl)-2-fluorophenyl)ethyl)amino)-6-(1-(fluoromethyl)cyclopropyl)-2-methylpyrido[3,4-d]pyridazine-1,7(2H,6H)-dione] as the compound, how does the pIC50 read?
**A.** 7.27

**Q.** C[C@@H](Nc1nn(C)c(=O)c2cc(=O)n([C@]3(C(F)(F)F)CCN(C)C3)cc12)c1cccc(C(F)F)c1F (single isomer, unassigned) [Example 98] was tested. Which pIC50 did it give?
**A.** 6.00

**Q.** C[C@@H](Nc1nn(C)c(=O)c2cc(=O)n([C@]3(C(F)(F)F)CCOC3)cc12)c1cccc(C(F)F)c1F (single isomer, unassigned) [Example 165] was tested. Which pIC50 did it give?
**A.** 6.37

**Q.** How did the pIC50 turn out when C[C@@H](Nc1nn(C)c(=O)c2cc(=O)n([C@@]34C[C@@H]3CN(C(=O)C3CC3)C4)cc12)c1cccc(C(F)F)c1F (single isomer, unassigned) [Example 141] was run?
**A.** 7.60

**Q.** How did the pIC50 turn out when CC(=O)N1CC[C@](n2cc3c(N[C@H](C)c4cccc5c(F)coc45)nn(C)c(=O)c3cc2=O)(C(F)(F)F)C1 (single isomer, unassigned) [Example 173] was run?
**A.** 5.55

**Q.** With Cn1nc(N[C@H](c2cccc(C(F)(F)F)c2)C(F)F)c2cn(C3CC3)c(=O)cc2c1=O [Example 112, (R)-6-cyclopropyl-4-((2,2-difluoro-1-(3-(trifluoromethyl)phenyl)ethyl)amino)-2-methylpyrido[3,4-d]pyridazine-1,7(2H,6H)-dione] as the compound, how does the pIC50 read?
**A.** < 5.00

**Q.** C[C@@H](Nc1nn(C)c(=O)c2c(OCC3COC3)c(=O)n(C3(C(F)F)CC3)cc12)c1cccc(C(F)F)c1F [Example 90, (R)-4-((1-(3-(difluoromethyl)-2-fluorophenyl)ethyl)amino)-6-(1-(difluoromethyl)cyclopropyl)-2-methyl-8-(oxetan-3-ylmethoxy)-2,6-dihydropyrido[3,4-d]pyridazine-1,7-dione] was tested. Which pIC50 did it give?
**A.** 7.22

**Q.** COC(C)(C)C(F)(F)c1cccc([C@@H](C)Nc2nn(C)c(=O)c3cc(=O)n(C4CC4)cc23)c1F [Example 109, (R)-6-cyclopropyl-4-((1-(3-(1,1-difluoro-2-methoxy-2-methylpropyl)-2-fluorophenyl)ethyl)amino)-2-methyl-2,6-dihydropyrido[3,4-d]pyridazine-1,7-dione] was tested. Which pIC50 did it give?
**A.** 6.92

**Q.** How did the pIC50 turn out when CC(=O)N1CC[C@](n2cc3c(N[C@H](C)c4cccc5c4OCC5(F)F)nn(C)c(=O)c3cc2=O)(C(F)(F)F)C1 (single isomer, unassigned) [Example 171] was run?
**A.** 5.76

**Q.** With C[C@@H](Nc1nn(C)c(=O)c2cc(=O)n(C3(C(F)F)CC3)cc12)c1cccc2c1OCCC2(F)F [Example 180, (R)-4-((1-(4,4-difluorochroman-8-yl)ethyl)amino)-6-(1-(difluoromethyl)cyclopropyl)-2-methyl-2,6-dihydropyrido[3,4-d]pyridazine-1,7-dione] as the compound, how does the pIC50 read?
**A.** 6.75

**Q.** C[C@@H](Nc1nn(C)c(=O)c2cc(=O)n([C@]3(C(F)F)CCOC3)cc12)c1cccc(C(F)F)c1F (single isomer, unassigned) [Example 120] was tested. Which pIC50 did it give?
**A.** 7.70

**Q.** COc1c(=O)n([C@@]2(C(F)(F)F)CCOC2)cc2c(N[C@H](C)c3cccc(C(F)F)c3F)nn(C)c(=O)c12 (single isomer, unassigned) [Example 157] was tested. Which pIC50 did it give?
**A.** 7.62

**Q.** C[C@H](Nc1nn(C)c(=O)c2cc(=O)n(C3(C(F)F)CC3)cc12)c1cccc2c1OCCC2(F)F [Example 181, (S)-4-((1-(4,4-difluorochroman-8-yl)ethyl)amino)-6-(1-(difluoromethyl)cyclopropyl)-2-methyl-2,6-dihydropyrido[3,4-d]pyridazine-1,7-dione] was tested. Which pIC50 did it give?
**A.** < 5.00

**Q.** With C[C@@H](Nc1nn(C)c(=O)c2cc(=O)n([C@@]3(C(F)F)CCOC3)cc12)c1cccc(C(F)F)c1F (single isomer, unassigned) [Example 119] as the compound, how does the pIC50 read?
**A.** 6.39

**Q.** C[C@@H](Nc1nn(C)c(=O)c2cc(=O)n(C34CNC(C3)C4)cc12)c1cccc(C(F)F)c1F [Example 145, (R)-6-(2-azabicyclo[2.1.1]hexan-4-yl)-4-((1-(3-(difluoromethyl)-2-fluorophenyl)ethyl)amino)-2-methyl-2,6-dihydropyrido[3,4-d]pyridazine-1,7-dione] was tested. Which pIC50 did it give?
**A.** 7.08

**Q.** With Cc1cnc(C(F)(F)c2cccc([C@H](C)Nc3nn(C)c(=O)c4cc(=O)n(C5(C(F)F)CC5)cc34)c2F)cn1 [Example 177, (S)-4-((1-(3-(difluoro(5-methylpyrazin-2-yl)methyl)-2-fluorophenyl)ethyl)amino)-6-(1-(difluoromethyl)cyclopropyl)-2-methyl-2,6-dihydropyrido[3,4-d]pyridazine-1,7-dione] as the compound, how does the pIC50 read?
**A.** < 5.00

**Q.** With C[C@@H](Nc1nn(C)c(=O)c2cc(=O)n([C@@]3(C(F)(F)F)CCOC3)cc12)c1cccc2c1OCC2(F)F (single isomer, unassigned) [Example 168] as the compound, how does the pIC50 read?
**A.** 7.87

**Q.** C[C@@H](Nc1nn(C)c(=O)c2cc(=O)n(C3(C(F)F)CCC3)cc12)c1cccc(C(F)F)c1F [Example 147, (R)-4-((1-(3-(difluoromethyl)-2-fluorophenyl)ethyl)amino)-6-(1-(difluoromethyl)cyclo-butyl)-2-methyl-2,6-dihydropyrido[3,4-d]pyridazine-1,7-dione] was tested. Which pIC50 did it give?
**A.** 7.49

**Q.** How did the pIC50 turn out when C[C@@H](Nc1nn(C)c(=O)c2cc(=O)n(C34CC(C(F)(F)F)(C3)C4)cc12)c1cccc(C(F)F)c1F [Example 155, (R)-4-((1-(3-(difluoromethyl)-2-fluorophenyl)ethyl)amino)-2-methyl-6-(3-(trifluoromethyl)bicyclo[1.1.1]pentan-1-yl)pyrido[3,4-d]pyridazine-1,7(2H,6H)-dione] was run?
**A.** 6.80

**Q.** With C[C@@H](Nc1nn(C)c(=O)c2cc(=O)n([C@@]3(C(F)(F)F)CCNC3)cc12)c1cccc(C(F)F)c1F (single isomer, unassigned) [Example 96] as the compound, how does the pIC50 read?
**A.** 7.53

**Q.** With C[C@@H](Nc1nn(C)c(=O)c2cc(=O)n([C@@H]3C[C@H]3C3CC3)cc12)c1cccc(C(F)F)c1F (single isomer, unassigned) [Example 136] as the compound, how does the pIC50 read?
**A.** 6.73

**Q.** Cc1c([C@@H](C)Nc2nn(C)c(=O)c3cc(=O)n([C@H]4C[C@@H]4c4cncc(F)c4)cc23)cccc1C(F)(F)F (single isomer, unassigned) [Example 91] was tested. Which pIC50 did it give?
**A.** 7.01

**Q.** How did the pIC50 turn out when COC1(C(=O)N2CC(C)(n3cc4c(N[C@H](C)c5cccc(C(F)F)c5F)nn(C)c(=O)c4cc3=O)C2)CC1 [Example 151, (R)-4-((1-(3-(difluoromethyl)-2-fluorophenyl)ethyl)amino)-6-(1-(1-methoxycyclopropane-1-carbonyl)-3-methylazetidin-3-yl)-2-methyl-2,6-dihydropyrido[3,4-d]pyridazine-1,7-dione] was run?
**A.** 6.25

**Q.** With C[C@@H](Nc1nn(C)c(=O)c2cc(=O)n(C3CC3)cc12)c1cccc2ccccc12 [Example 1, (R)-6-cyclopropyl-2-methyl-4-((1-(naphthalen-1-yl)ethyl)amino)-2,6-dihydropyrido[3,4-d]pyridazine-1,7-dione] as the compound, how does the pIC50 read?
**A.** 5.99

**Q.** With CC(=O)N1CC[C@@](C)(n2cc3c(N[C@H](C)c4cccc(C(F)F)c4F)nn(C)c(=O)c3cc2=O)C1 (single isomer, unassigned) [Example 143] as the compound, how does the pIC50 read?
**A.** 8.11

**Q.** How did the pIC50 turn out when C[C@@H](Nc1nn(C)c(=O)c2cc(=O)n(C3(C(F)F)CC3)cc12)c1cccc2cccn12 [Example 114, (R)-6-(1-(difluoromethyl)cyclopropyl)-4-((1-(indolizin-5-yl)ethyl)amino)-2-methyl-2,6-dihydropyrido[3,4-d]pyridazine-1,7-dione] was run?
**A.** 5.69

**Q.** How did the pIC50 turn out when CC(=O)N1CC[C@](n2cc3c(N[C@H](C)c4cccc(C(F)F)c4F)nn(C)c(=O)c3cc2=O)(C(F)(F)F)C1 (single isomer, unassigned) [Example 100] was run?
**A.** 5.72
